Test results from PMC12518634, “The noncanonical function of liver-type phosphofructokinase potentiates the efficacy of HDAC inhibitors in cancer” (Signal Transduction and Targeted Therapy, 2025).
Counter-ions that a name gives are not always drawn. Like-named read-outs stand apart in the source and are kept apart here.

What was measured:
1405R3 = assay: High-throughput drug screen, CellTiter-Glo viability, 72 h; assay type: cell-based, human; set-up: AUC: scale not given here; conditions: 1405R3 DSRT analysis; for AUC: area under the dose-response curve; for MIN: lower asymptote of fitted dose-response curve; for EC50: fitted dose-response curve, Min.Conc.tested 1, Max.Conc.tested 10000, 72 h, read-out: EC50; for SLOPE: slope of fitted dose-response curve
Procedure, shortened: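 Responses are drug sensitivity scores (efficacy cutoff ≥10), fitted from CellTiter-Glo luminescence. Each drug was given at five concentrations (10 to 0.001 μM, tenfold steps) in duplicate for 72 h. Cells were plated at 3000/well 24 h before dosing.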

783C-6 = assay: as above; assay type: cell-based, human; set-up: AUC: scale not given here; conditions: for AUC: area under the dose-response curve; for EC50: 72 h, read-out: EC50
Procedure, shortened: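 Cholangiocarcinoma cells were seeded at 3000/well in 384-well plates and dosed after 24 h. Drugs were tested at 10, 1, 0.1, 0.01 and 0.001 μM in duplicate for 72 h, with viability read by CellTiter-Glo luminescence.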

[1] = 783C-6 DSRT analysis, DSS calculated from the dose-response curve
[2] = 783C-6 DSRT analysis, MIN of the fitted dose-response curve
[3] = 783C-6 cells, DSS of DSRT analysis
[4] = 783C-6 cells, minimum of dose-response curve
[5] = 783C-6 cells, slope of fitted dose-response curve
[6] = 783C-6 DSRT analysis, CellTiter-Glo viability, fitted dose-response curve, Min.Conc.tested 1, Max.Conc.tested 10000
[7] = 783C-6 DSRT analysis, slope of the fitted dose-response curve
[8] = 783C-6 cells, DSRT analysis, CellTiter-Glo viability, concentrations tested 1 to 10000 (unit inferred), GI50

| Compound | DSS (1405R3; DSS) | AUC (1405R3) | MIN (1405R3) | EC50 (1405R3; Homo sapiens, CellTiter-Glo) | DSS (783C-6; [1]) | MIN (783C-6; [2]) | AUC (783C-6; 783C-6 DSRT analysis) | EC50 (783C-6; Homo sapiens) | DSS (1405R3; drug sensitivity score) | EC50 (1405R3; Homo sapiens, CellTiter-Glo viability, GI50) | DSS (783C-6; [3]) | AUC (783C-6; 783C-6 cells) | MIN (783C-6; [4]) | SLOPE (1405R3) | SLOPE (783C-6; [5]) | EC50 (1405R3; CellTiter-Glo) | EC50 (783C-6; [6]) | SLOPE (783C-6; [7]) | EC50 (783C-6; [8]) | EC50 (1405R3; CellTiter-Glo viability, GI50) |
| --- | --- | --- | --- | --- | --- | --- | --- | --- | --- | --- | --- | --- | --- | --- | --- | --- | --- | --- | --- | --- |
| CCN1CCN(c2ccc(Nc3cc(N(C)C(=O)Nc4c(Cl)c(OC)cc(OC)c4Cl)ncn3)cc2)CC1 [BGJ398] | 5.5 | 50.1 | 7.2 | 2940 nM | 8 | 7.1 | 70 | 1770 nM |  |  |  |  |  |  |  |  |  |  |  |  |
| COc1cc2c(NC3CCN(C(C)C)CC3)nc(C3CCCCC3)nc2cc1OCCCN1CCCC1 [UNC0638] |  | 19.7 | 59.1 |  |  |  |  | 1540 nM | 1.9 | 3370 nM | 2 | 21.3 | 73.8 |  |  |  |  |  |  |  |
| O=C(NNc1ccccn1)c1ccccn1 [PFI-90] |  | 8.1 | 93.5 |  |  |  |  |  | 0 |  | 0 | 10.9 | 92.2 | -0.2 | -2.5 |  |  |  |  |  |
| COc1cccc2c1c(O)c(C(=O)N(C)c1ccc(C(F)(F)F)cc1)c(=O)n2C [Tasquinimod] |  | 0.1 | 100 |  |  |  |  |  | 0 |  | 0 | 1.7 | 96 |  |  |  |  |  |  |  |
| COc1cc2c(NC3CCN(C)CC3)cc(-c3ccc(C)o3)nc2cc1OCCCN1CCCC1 [CM272] | 6.8 | 59.8 | 15.5 |  | 13.1 | 28.5 | 107.8 |  |  |  |  |  |  | -2.5 |  | 1980 nM | 311 nM | -2.5 |  |  |
| O=C1CCc2c(ccc3ccccc23)O1 [Splitomicin] |  | 3.1 | 95.1 |  |  |  |  |  | 0 |  | 0 | 7.8 | 95 |  |  |  |  |  |  |  |
| TC-H 106 |  | 47 | 75.6 |  |  |  |  |  | 2.6 |  | 5.3 | 61.5 | 48.5 | -0.4 | -0.6 |  |  |  | 923 nM |  |
| O=C(CCc1ccc(CN[C@H](C(=O)OC2CCCC2)C2CCCCC2)cn1)NO [GSK3117391] | 8.4 | 74.7 | 7.4 |  | 7.5 | 4.1 | 65.5 |  |  |  |  |  |  | -1.9 |  | 1580 nM | 2090 nM | -2.5 |  |  |
| COc1cc2c(Oc3ccc(NC(=O)C4(C(=O)Nc5ccc(F)cc5)CC4)cc3F)ccnc2cc1OCCCN1CCOCC1 [Foretinib] | 2.9 | 27.8 | 51.5 | 2710 nM | 4.1 | 32.7 | 37.2 | 2850 nM |  |  |  |  |  |  |  |  |  |  |  |  |
| CCCC(CCC)C(=O)O [Valproic acid sodium salt] |  | 8.4 | 92.2 |  |  |  |  |  | 0 |  | 0 | 4.4 | 85.4 |  |  |  |  |  |  |  |
| CN1CCN(c2ccc3nc(-c4c(N)c5c(F)cccc5[nH]c4=O)[nH]c3c2)CC1 [Dovitinib] | 4.2 | 38.6 | 29.8 | 2870 nM | 4.1 | 35.6 | 37 | 2700 nM |  |  |  |  |  |  |  |  |  |  |  |  |
| CCOC(=O)CCNc1cc(N2CCc3ccccc3CC2)nc(-c2ccccn2)n1 [GSK J4 HCl] | 2.7 | 26.1 | 65 | 1800 nM | 0 | 70.3 | 8.9 |  |  |  |  |  |  |  |  |  |  |  |  |  |
| CC[C@@H]1C(=O)N(C)c2cnc(Nc3ccc(C(=O)NC4CCN(C)CC4)cc3OC)nc2N1C1CCCC1 [BI 2536] | 11.6 | 98.4 | 6.7 | 884 nM | 8.8 | 52.4 | 90 | 136 nM |  |  |  |  |  |  |  |  |  |  |  |  |
| Cc1cc(-c2ccc3nc(C4CCOCC4)n(CCOC(F)(F)F)c3c2)cn(C)c1=O [NEO2734] |  | 130.5 | 8.1 |  |  |  |  |  | 14.3 |  | 6.1 | 72.8 | 64.2 | -0.9 | -0.3 |  |  |  | 87.4 nM | 407 nM |
| COc1cc2nc(N3CCCC3)nc(NCCCCCN3CCCC3)c2cc1OC [UNC0379] |  | 39.7 | 76.2 |  |  |  |  |  | 1.9 |  | 3.2 | 30.1 | 55.3 | -0.4 | -2.5 |  |  |  |  |  |
| Cc1cc(-c2ccccc2)cc(C(=O)NNS(=O)(=O)c2cccc(O)c2)c1F [WM-3835] |  | 14.5 | 90.6 |  |  |  |  |  | 0 |  | 0 | 15.7 | 93.1 |  |  |  |  |  |  |  |
| Cn1cc(-c2ccc(S(=O)(=O)n3ccc(/C=C/C(=O)Nc4ccccc4N)c3)cc2)cn1 [4SC-202] | 3.9 | 35.8 | 57.9 |  | 6.7 | 48.6 | 57 |  |  |  |  |  |  | -2.3 |  | 1420 nM | 780 nM | -2.5 |  |  |
| CCC(CC)n1ccc2c(C(=O)NCc3c(C)cc(C)[nH]c3=O)cc(C#N)cc21 [EI1] | 0 | 0.1 | 100 |  | 0 | 98.2 | 0.7 |  |  |  |  |  |  | -0.1 |  |  |  | -0.8 |  |  |
| O=C(O)C(Cc1c[nH]c2ccccc12)N1C(=O)c2ccccc2C1=O (stereo not drawn) [RG108] |  | 0.1 | 99.8 |  |  |  |  |  | 0 |  | 0 | 9.4 | 94 | -1.1 | -0.1 |  |  |  |  |  |
| Nc1ccn([C@@H]2O[C@H](CO)[C@@H](O)C2(F)F)c(=O)n1 [Gemcitabine] | 17.6 | 151.9 | 40 | 26.1 nM | 7.6 | 63.5 | 82.5 | 40.1 nM |  |  |  |  |  |  |  |  |  |  |  |  |
| CCCC(CCC)C(=O)O [Divalproex Sodium] | 0 | 0.1 | 100 |  | 0 | 96.3 | 0.4 |  |  |  |  |  |  |  |  |  |  |  |  |  |
| CC(=O)Nc1ccc(C(=O)Nc2ccc(F)cc2N)cc1 [BRD3308] | 0 | 12.9 | 91.7 |  | 0 | 86.9 | 3.9 |  |  |  |  |  |  | -0.1 |  |  |  | -1 |  |  |
